Data reported in patent US12391648B2, “Pyridyloxy thioester derivative and preparation method therefor, herbicidal composition, and application” (Qingdao Kingagroot Chemical Compound Co., Ltd., priority 2018, dated 2025).

How the values were obtained:
[1] = test system: ALS resistant Cyperus iria; assay: Post-emergence test experiment (Table 4), weed control; assay type: in vivo; details: after 3 weeks
Source text: (§1) The activity level standard of harmful plants destruction (i. e. growth inhibition rate) is as follows: • Level 5: the growth inhibition rate is greater than 85%; • Level 4: the growth inhibition rate is equal to or greater than 60% and less than 85%; • Level 3: the growth inhibition rate is equal to or greater than 40% and less than 60%; • Level 2: the growth inhibition rate is equal to or greater than 20% and less than 40%; • Level 1: the growth inhibition rate is equal to or greater than 5% and less than 20%; • Level 0: the growth inhibition rate is less than 5%;
(§2) The above described growth inhibition rate is fresh weight inhibition rate.
(§3) Post-emergence test experiment: Monocotyledonous and dicotyledonous weed seeds and main crop seeds (i. e. wheat, corn, rice, soybean, cotton, oilseed, millet and sorghum.) were put into a plastic pot loaded with soil. Then covered with 0.5-2 cm soil, the seeds were allowed to grow in good greenhouse environment. The test plants were treated at 2-3 leaf stage 2 weeks after sowing. The test compounds of the invention were dissolved with acetone respectively, then added with tween-80, and using 1.5 liters per hectare of an emulsible concentrate of methyl oleate as a synergist, and diluted by certain amount of water to certain concentration. The solution was sprayed to the plants with a sprayer. Then the plants were cultured for 3 weeks in the greenhouse, and the experiment result of weed controlling effect after 3 weeks was listed in tables 3-4.
(§4) […] Echinochloa crusgalli and Cyperus iria were collected from Ningxia Hui Autonomous Region of China, which had evolved resistance to ALS inhibiting herbicides. • Control compound A:

[2] = test system: ALS resistant Echinochloa crusgalli; assay: as above; assay type: in vivo; details: after 3 weeks
Source text: as §1, §2, §3, §4

[3] = test system: Indica rice; assay: Post-emergence test experiment (Table 4), crop safety; assay type: in vivo; details: after 3 weeks
Source text: as §1, §2, §3, §4

[4] = test system: Japonica rice; assay: as above; assay type: in vivo; details: after 3 weeks
Source text: as §1, §2, §3, §4

[5] = test system: rice; details: known compound; cited from earlier work
[6] = test system: Galium spurium; assay: Post-emergence test experiment (Table 3, 1000 g/ha); assay type: in vivo; details: post-emergence spray, after 3 weeks, fresh weight inhibition
Procedure, shortened: (§5)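 Activity graded levels 0-5 by fresh-weight inhibition (level 5 above 85%, level 0 below 5%), assessed 3 weeks after treatment. Plants grown in greenhouse pots were sprayed post-emergence at 2-3 leaves using acetone/tween-80 solutions with methyl oleate synergist (1.5 L/ha).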

[7] = test system: Abutilon theophrasti; assay: as above; assay type: in vivo; details: post-emergence spray, after 3 weeks, fresh weight inhibition
Procedure, shortened: as §5

[8] = test system: Digitaria sanguinalis; assay: as above; assay type: in vivo; details: post-emergence spray, after 3 weeks, fresh weight inhibition
Procedure, shortened: as §5

[9] = test system: Leptochloa chinensis; assay: as above; assay type: in vivo; details: post-emergence spray, after 3 weeks, fresh weight inhibition
Procedure, shortened: as §5

[10] = test system: Setaria viridis; assay: as above; assay type: in vivo; details: post-emergence spray, after 3 weeks, fresh weight inhibition
Procedure, shortened: as §5

[11] = test system: Monochoria vaginalis; assay: as above; assay type: in vivo; details: post-emergence spray, after 3 weeks, fresh weight inhibition
Procedure, shortened: as §5

[12] = test system: rice (japonica rice); assay: Transplanted rice safety evaluation; assay type: in vivo; details: 1000 g/ha, transplanted 3-leaf stage japonica rice, treated 5 days after transplantation, 21 days after treatment
Source text: as §1
(§6) Transplanted rice safety evaluation and weed control effect evaluation in rice field:
In addition, the rice field soil that loaded into the 1/1,000,000 ha pot was leveled to keep water storage at 3-4 cm depth. The 3-leaf stage rice (japonica rice) was transplanted at 3 cm of transplanting depth the next day. The compound of the present invention was treated by the same way after 5 days of transplantation.
(§7) The fertility condition of Monochoria vaginalis 14 days and rice 21 days after the treatment of the compound of the invention with the naked eye.

[13] = test system: Monochoria vaginalis; assay: Weed control effect evaluation in rice field; assay type: in vivo; details: 1000 g/ha, paddy water application at 0.5 leaf stage, 14 days after treatment, weeds resistant to pyrazosulfuron-ethyl and penoxsulam
Source text: as §1, §6
Rice field soil was loaded into a 1/1,000,000 ha pot. The seeds of Monochoria vaginalis were sowed and gently covered with soil, then left to stand still in greenhouse in the state of 0.5-1 cm of water storage. It was kept at 3-4 cm of water storage thereafter. The weeds were treated by dripping the WP or SC water diluents prepared according to the common preparation method of the compounds of the present invention with pipette homogeneously to achieve specified effective amount when Monochoria vaginalis reached 0. 5 leaf stage.
as §7
Note: The seeds of Monochoria vaginalis were collected from Heilongjing Province of China.

[14] = 600 g/ha active ingredient, plus water 450 kg/ha

Compound	ALS resistant Cyperus iria, activity level (growth inhibition rate) ([1]; 300 g/ha)	ALS resistant Cyperus iria, activity level (growth inhibition rate) [1, 14]	ALS resistant Echinochloa crusgalli, activity level (growth inhibition rate) ([2]; 300 g/ha)	ALS resistant Echinochloa crusgalli, activity level (growth inhibition rate) [2, 14]	Indica rice, activity level (growth inhibition rate) ([3]; 300 g/ha)	Indica rice, activity level (growth inhibition rate) [3, 14]	Japonica rice, activity level (growth inhibition rate) ([4]; 300 g/ha)	Japonica rice, activity level (growth inhibition rate) [4, 14]	safety and selectivity in rice [5]	Activity level (growth inhibition rate) Galium spurium [6]	Activity level (growth inhibition rate) Abutilon theophrasti [7]	Activity level (growth inhibition rate) Digitaria sanguinalis [8]	Activity level (growth inhibition rate) Leptochloa chinensis [9]	Activity level (growth inhibition rate) Setaria viridis [10]	Activity level (growth inhibition rate) Monochoria Vaginalis [11]	Rice, activity standard level 0-5 (safety) [12]	Monochoria Vaginalis, activity standard level 0-5 [13]
CC(Oc1nc(F)c(Cl)c(N)c1Cl)C(=O)O (stereo not drawn) [Control compound A, reference compound]	4 (Level 4: the growth inhibition rate is equal to or greater than 60% and less than 85%)	5 (Level 5: the growth inhibition rate is greater than 85%)	4 (Level 4: the growth inhibition rate is equal to or greater than 60% and less than 85%)	5 (Level 5: the growth inhibition rate is greater than 85%)	2 (Level 2: the growth inhibition rate is equal to or greater than 20% and less than 40%)	3 (Level 3: the growth inhibition rate is equal to or greater than 40% and less than 60%)	3 (Level 3: the growth inhibition rate is equal to or greater than 40% and less than 60%)	3 (Level 3: the growth inhibition rate is equal to or greater than 40% and less than 60%)	poor safety and low selectivity in rice								
CCSC(=O)C(C)Oc1nc(F)c(Cl)c(N)c1Cl (stereo not drawn) [Compound 66]		5 (Level 5: the growth inhibition rate is greater than 85%)		5 (Level 5: the growth inhibition rate is greater than 85%)		0 (Level 0: the growth inhibition rate is less than 5%)		0 (Level 0: the growth inhibition rate is less than 5%)		5 (Level 5: the growth inhibition rate is greater than 85%)	5 (Level 5: the growth inhibition rate is greater than 85%)	5 (Level 5: the growth inhibition rate is greater than 85%)	5 (Level 5: the growth inhibition rate is greater than 85%)	5 (Level 5: the growth inhibition rate is greater than 85%)	5 (Level 5: the growth inhibition rate is greater than 85%)	0 (Level 0: the growth inhibition rate is less than 5%)	5 (Level 5: the growth inhibition rate is greater than 85%)
CSC(=O)C(C)Oc1nc(F)c(Cl)c(N)c1Cl (stereo not drawn) [Compound 4]		5 (Level 5: the growth inhibition rate is greater than 85%)		5 (Level 5: the growth inhibition rate is greater than 85%)		0 (Level 0: the growth inhibition rate is less than 5%)		0 (Level 0: the growth inhibition rate is less than 5%)		5 (Level 5: the growth inhibition rate is greater than 85%)	5 (Level 5: the growth inhibition rate is greater than 85%)	5 (Level 5: the growth inhibition rate is greater than 85%)	5 (Level 5: the growth inhibition rate is greater than 85%)	5 (Level 5: the growth inhibition rate is greater than 85%)	5 (Level 5: the growth inhibition rate is greater than 85%)	0 (Level 0: the growth inhibition rate is less than 5%)	5 (Level 5: the growth inhibition rate is greater than 85%)
CSC(=O)C(C)Oc1nc(F)c(C)c(N)c1C (stereo not drawn) [Compound 7]		5 (Level 5: the growth inhibition rate is greater than 85%)		5 (Level 5: the growth inhibition rate is greater than 85%)		0 (Level 0: the growth inhibition rate is less than 5%)		0 (Level 0: the growth inhibition rate is less than 5%)		5 (Level 5: the growth inhibition rate is greater than 85%)	5 (Level 5: the growth inhibition rate is greater than 85%)	5 (Level 5: the growth inhibition rate is greater than 85%)	5 (Level 5: the growth inhibition rate is greater than 85%)	5 (Level 5: the growth inhibition rate is greater than 85%)	5 (Level 5: the growth inhibition rate is greater than 85%)	0 (Level 0: the growth inhibition rate is less than 5%)	5 (Level 5: the growth inhibition rate is greater than 85%)
